One data set deals with T1, COX-2 (Homo sapiens, UniProt P35354).
T1 construct: purchased Cayman Chemical Company 701080
T1 sequence (P35354 18-604): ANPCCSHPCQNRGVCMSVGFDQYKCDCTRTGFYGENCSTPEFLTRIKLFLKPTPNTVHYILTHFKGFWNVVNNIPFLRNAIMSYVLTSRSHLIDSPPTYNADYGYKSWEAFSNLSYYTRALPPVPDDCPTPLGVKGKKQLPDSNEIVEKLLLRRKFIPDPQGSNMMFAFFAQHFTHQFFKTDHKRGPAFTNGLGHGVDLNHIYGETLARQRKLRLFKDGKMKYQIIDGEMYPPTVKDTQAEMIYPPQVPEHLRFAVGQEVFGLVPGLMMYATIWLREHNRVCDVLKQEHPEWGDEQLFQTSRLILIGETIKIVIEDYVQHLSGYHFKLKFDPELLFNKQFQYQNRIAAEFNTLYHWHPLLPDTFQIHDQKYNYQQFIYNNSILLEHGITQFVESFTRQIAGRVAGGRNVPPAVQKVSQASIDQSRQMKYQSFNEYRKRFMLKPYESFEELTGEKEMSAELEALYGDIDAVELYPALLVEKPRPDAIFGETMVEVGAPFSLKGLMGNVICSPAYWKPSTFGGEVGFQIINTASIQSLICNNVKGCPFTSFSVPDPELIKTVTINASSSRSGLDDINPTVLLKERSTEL
Put plainly: COX-2 inhibitory screening assay (Cayman kit). The conditions noted are these: for Increase in COX-2 inhibitory efficiency by duplicating the concentration: % inhibition at 0.200 mg/mL divided by % inhibition at 0.100 mg/mL; for inhibition at 100 µg/mL: at 0.100 mg/mL; for inhibition at 100 µg/mL / inhibition at 200 µg/mL: read-out: COX-2 mean % inhibition ± SD; for inhibition at 200 µg/mL: at 0.200 mg/mL. In kind it is biochemical. The method, then: Each compound of the two series, 3a–h and 5a–h, was resuspended in 100% DMSO at a final concentration of 10 mg/mL. […] Briefly, 10 µL of the tested compound was added to a mixture of the reaction buffer solution (160 µL of 0.1 M Tris-HCl, pH 8.0, in the presence of 2 mM phenol and 5 mM EDTA), COX-2 (10 µL) and heme (10 µL). After a 10 min incubation at 37 °C, the reaction was started by adding arachidonic acid (10 µL), rapidly mixed and kept at 37 °C for 2 min. PGF2α generated via PGH2 reduction with stannous chloride (30 µL) was incubated at room temperature for 5 min. The PGF2α amount was then determined via an enzyme immunoassay. Prior to incubation with the COX-2 reaction (at room temperature 18 h), the 96-well plate was previously coated with a mouse anti-rabbit monoclonal antibody. Unbound reagents were removed by washing the plate followed by adding Ellman’s reagent to the well. The reaction product displaying a distinct yellow color was measured at 410 nm using a UV microplate reader. The % inhibition was calculated by comparing the PGF2α produced in the compound-treated samples with a control sample, using the following equation: % inhibition is equal to [([PGF2α]control − [PGF2α]sample) /[PGF2α ]control ] × 100. […] The COX-2 inhibitory efficiency was expressed as an inhibition percentage, which was determined via a comparison with the negative control experiments.

Data set [1] is described as follows: DPPH radical scavenging assay. In kind it is biochemical. The conditions noted are these: for Mean IC50 for scavenging initial DPPH radicals: mean ± SD of three replicates; for IC50: mean ± SD, converted from mg/mL, read-out: Mean IC50 for scavenging initial DPPH radicals (converted). From the text: In principle, the antioxidant power of a compound in this assay is correlated to its tendency to reduce the stable, purple-colored DPPH radical through a hydrogen atom transfer (HAT) mechanism and/or a single electron transfer mechanism, thereby converting it to the yellow-colored 2,2-diphenyl-1-picrylhydrazine, whereby this reduction is accompanied by a depletion in the amount of the initial DPPH radicals and a change in the absorbance of the test solution accordingly, which can be detected relative to the blank solution at λ = 517 nm.
The antioxidant potencies of all synthesized compounds were investigated using a 1,1 diphenyl-2-picrylhydrazyl (DPPH) radical scavenging assay according to the protocol described by Bersuder et al.. In brief, a 0.5 mL volume of DPPH ethanolic solution was mixed with an equal volume of each sample concentration (i.e., the test compound or butylated hydroxytoluene, BHT, which was used as the reference antioxidant in the positive control experiment), shaken strongly, and incubated at room temperature for 1 h in darkness. The absorbance of the residual DPPH radicals was measured at λ = 519 nm and compared to the negative control (without the test compound or reference antioxidant). The DPPH radical scavenging power was calculated using the following formula: scavenging efficiency (%) = (1 − Acompound/AControl) × 100, where Acompound and Acontrol are the absorbance of the tested compound and the negative control, respectively. […] Additionally, the ± SD values were calculated from three independent triplicate measurements.
On the technique in general: The DPPH test is a chemical assay of radical scavenging.

The next data set has as its target α-amylase. Briefly: In vitro α-amylase (AA) inhibition assay. To be noted: mean ± SD of three replicates; for IC50: read-out: Mean IC50 α-Amylase (AA).
For data set [2], the target named is purified recombinant human LDHA protein (Homo sapiens, UniProt P00338). Briefly: Lactate dehydrogenase A (LDHA) inhibitory assay. In kind it is biochemical. To be noted: for Fold change of LDHA inhibition as compared to 0.1 mg/mL: % inhibition at 0.200 mg/mL divided by % inhibition at 0.100 mg/mL; for inhibition at 100 µg/mL: at 0.1 mg/mL; for inhibition at 100 µg/mL / inhibition at 200 µg/mL: read-out: LDHA mean % inhibition ± SD; for inhibition at 200 µg/mL: at 0.2 mg/mL. The method, then:
The LDHA inhibitory effectiveness was investigated by measuring the amounts of consumed NADH [73]. […] The fluorescence of NADH, which has an excitation wavelength of 340 nm and an emission wavelength of 460 nm, was detected using a spectrofluorometer. […] The LDHA inhibitory efficiency was expressed as an inhibition percentage, which was determined via a comparison with the negative control experiments.

Data set [3] concerns HCT-116 human colon carcinoma cells. Briefly: Viability assay (LDH release), HCT-116. In kind it is cell-based. To be noted: for viability at 200 µg/mL: Homo sapiens, read-out: Mean % of viable cells ± SD, HCT-116. Here is the method:
(§1) The anticancer activities of all the synthesized compounds were assessed against two human colon carcinoma cell lines, namely LoVo and HCT-116 (Table 6), via the determination of the mean percents of the viable cancerous cells remaining after being incubated with 200 µg/mL of each test compound for 48 h using LDH assay.
(§2) The samples were diluted in Dulbecco’s Modified Eagle’s Medium, consisting of 10% fetal bovine serum (FBS), added to cells grown and cultured for 24 h in a 5% CO2-humidified incubator at 37 °C. Thereafter, the activity of lactate dehydrogenase released from damaged cells was determined in the collected supernatant aliquots using an ELISA end-point assay (Benchmark Plus, Bio-Rad, CA, USA); 0.1% Triton X-100 in the assay medium and the assay medium only were used as the positive and negative controls, respectively. Cell viability was expressed as a relative percentage of the OD values (at 550 nm) for compound-treated cells (final concentration of 200 µg /mL) and the negative control, which was shown as the mean % ± SD (n = 3). The results of the viability assays for the potential cytotoxic candidates were compared with the % of viable human umbilical vein endothelial cells (HUVEC) at the same concentration. These cells were grown in Dulbecco’s Modified Eagle’s Medium (PAN-Biotech; Barcelona, Spain) containing 10% FBS (Sigma Aldrich; St. Quentin-Fallavier, France), 2 mM Glutamine (Sigma Aldrich), 100 units/mL penicillin and […] streptomycin (Life Technologies; Paisley, UK).
(Release of lactate dehydrogenase indicates damage to the cell membrane.)

Data set [4] concerns LoVo human colon carcinoma cells. Put plainly: Viability assay (LDH release), LoVo. To be noted: for viability at 200 µg/mL: Homo sapiens, LoVo, 48 h, read-out: Mean % of viable cells ± SD, LoVo. In kind it is cell-based. The method, then:
as §1, §2

Where two headings read alike, the source gives them in different places.

Description for α-amylase: Then, 180 µL of Labtest (the amylase substrate) was added and the samples were incubated for 8 min, followed by measuring the first reaction at 620 nm to obtain (X1). Afterwards, the reaction mixture was incubated for an additional 5 min at 37 °C; then, the second reaction was measured to obtain the final reading (X2). […] The results were expressed as IC50 µg/mL (as well as µM) and were determined from the standard curves.

Turning to `O=c1c2cc(Cl)ccc2[nH]c(=S)n1-c1ccc(C(F)(F)F)cc1` [Compound 3d, 6-Chloro-2-thioxo-3-(4-trifluoromethyl-phenyl)-2,3-dihydro-1H-quinazolin-4-one], on COX-2, the “Increase in COX-2 inhibitory efficiency by duplicating the concentration” value (from here on “Increase in COX-2 inhibitory efficiency”) was 1.62 fold; the inhibition (commonly the relative decrease from the control value, in per cent) at 100 µg/mL worked out at 20.2 ± 1.13%; the inhibition at 200 µg/mL turned out to be 32.8 ± 2.48%. In addition, in data set [1], the “Mean IC50 for scavenging initial DPPH radicals” value stood at 179 ± 16 µg/mL and the IC50 (usually the concentration that gives 50% inhibition) is 502 µM. At α-amylase, the “Mean IC50 α-Amylase (AA)” value is reported as 335.667 ± 3.055 µg/mL and the IC50 was 941 µM. In data set [2], the “Fold change of LDHA inhibition as compared to 0.1 mg/mL” value (“Fold change of LDHA inhibition” below) stood at 1.59 fold, the inhibition at 100 µg/mL came to 33.5 ± 2.12% and the inhibition at 200 µg/mL came to 53.5 ± 2.12%. Moreover, the viability at 200 µg/mL in data set [3] (HCT-116, 48 h) turned out to be 96 ± 1.73%. Also, in data set [4], the viability at 200 µg/mL was determined as 87 ± 1.73%.

For `O=c1c2cc(Cl)ccc2nc(SCc2ccccc2F)n1-c1cccc(C(F)(F)F)c1` [Compound 5a, 2-(2-Fluoro-benzylsulfanyl)-6-chloro-3-(3-trifluoromethyl-phenyl)-3H-quinazolin-4-one], on COX-2, the “Increase in COX-2 inhibitory efficiency” value is reported as 1.85 fold, the inhibition at 100 µg/mL was found to be 34.2 ± 1.7% and the inhibition at 200 µg/mL came out at 63.1 ± 5.87%. Besides, in data set [1], the “Mean IC50 for scavenging initial DPPH radicals” value was 80 ± 2 µg/mL and the IC50 was 172 µM. Moreover, at α-amylase, the “Mean IC50 α-Amylase (AA)” value was found to be 86.667 ± 4.509 µg/mL and the IC50 is 186 µM. Besides, in data set [2], the “Fold change of LDHA inhibition” value came to 1.62 fold, the inhibition at 100 µg/mL turned out to be 24 ± 1.7% and the inhibition at 200 µg/mL was determined as 38.9 ± 1.13%. Also, in data set [3] (HCT-116, 200 µg/mL, 48 h), the viability at 200 µg/mL stood at 89.7 ± 3.06%. Moreover, the viability at 200 µg/mL in data set [4] (200 µg/mL) came out at 90.3 ± 1.53%.

As to `COc1cc2nc(SCc3ccc(Cl)cc3)n(-c3ccc([N+](=O)[O-])cc3)c(=O)c2cc1OC` [Compound 5h, 2-(4-Chloro-benzylsulfanyl)-6,7-dimethoxy-3-(4-nitro-phenyl)-3H-quinazolin-4-one], on COX-2, the “Increase in COX-2 inhibitory efficiency” value is reported as 2.58 fold, the inhibition at 100 µg/mL was 11.2 ± 0.99% and the inhibition at 200 µg/mL amounted to 28.9 ± 0.283%. Besides, in data set [1], the “Mean IC50 for scavenging initial DPPH radicals” value came out at 364 ± 20 µg/mL and the IC50 was 752 µM. In addition, at α-amylase, the “Mean IC50 α-Amylase (AA)” value was 117.667 ± 3.055 µg/mL and the 50% inhibitory concentration (IC50) was 243 µM. Further, in data set [2], the “Fold change of LDHA inhibition” value stood at 1.42 fold, the inhibition at 100 µg/mL is 15.3 ± 1.2% and the inhibition at 200 µg/mL came out at 21.8 ± 1.34%. Further, the viability at 200 µg/mL in data set [3] (HCT-116, 200 µg/mL, 48 h) is 91 ± 2.65%. For the same compound, the viability at 200 µg/mL in data set [4] (200 µg/mL) is 81.7 ± 3.06%.

With Triton X-100 [reference compound], in data set [3] (positive control, 0.1%), the “Mean % of viable cells, HCT-116” value turned out to be 0.000%. Also, the “Mean % of viable cells, LoVo” value in data set [4] (positive control, 0.1%) worked out at 0.000%.

Take `O=c1c2cc(Br)ccc2[nH]c(=S)n1-c1cccc(C(F)(F)F)c1` [Compound 3b, 6-Bromo-2-thioxo-3-(3-trifluoromethyl-phenyl)-2,3-dihydro-1H-quinazolin-4-one]: at COX-2, the “Increase in COX-2 inhibitory efficiency” value was determined as 1.72 fold, the inhibition at 100 µg/mL was determined as 6.25 ± 1.77% and the inhibition at 200 µg/mL is 10.8 ± 2.48%. Further, at α-amylase, the half-inhibitory concentration (IC50) is 427 µM. In addition, in data set [2], the “Fold change of LDHA inhibition” value is reported as 1.45 fold, the inhibition at 100 µg/mL worked out at 29.1 ± 2.19% and the inhibition at 200 µg/mL turned out to be 42.4 ± 1.91%. For the same compound, the viability at 200 µg/mL in data set [3] (HCT-116, 48 h) was 70.7 ± 2.52%. In data set [4], the viability at 200 µg/mL was found to be 62 ± 3.61%.

For the compound `Cc1cc(C(C)(C)C)c(O)c(C(C)(C)C)c1` [BHT, butylated hydroxy toluene, reference compound], in data set [1], the “Mean IC50 for scavenging initial DPPH radicals” value came out at 54 ± 6 µg/mL and the half-inhibitory concentration (IC50) is 245 µM.

The record behind these values is paper PMC10610505, “Synthesis and Biological Evaluation of Some New 3-Aryl-2-thioxo-2,3-dihydroquinazolin-4(1H)-ones and 3-Aryl-2-(benzylthio)quinazolin-4(3H)-ones as Antioxidants; COX-2, LDHA, α-Glucosidase and α-Amylase Inhibitors; and Anti-Colon Carcinoma and Apoptosis-Inducing Agents” (Pharmaceuticals, 2023).
